Data as given in patent publication US20100061982A1, “3-SUBSTITUTED-1H-INDOLE, 3-SUBSTITUTED-1H-PYRROLO[2,3-B]PYRIDINE AND 3-SUBSTITUTED-1H-PYRROLO[3,2-B]PYRIDINE COMPOUNDS, THEIR USE AS MTOR KINASE AND PI3 KINASE INHIBITORS, AND THEIR SYNTHESES” (priority 2008, published 2010).
Values after ≈ are worked out from the molar mass of the structure shown. Where two headings read alike, the source gives them in different places.

Key:
[1] = Microsome Stability (15 min), rat; type: in vitro ADME; conditions: microsomes, Phase I (NADPH), read-out: Microsome Stability (15 min) T ½ Phase I rat
[2] = PAMPA permeability pH 7.4
Solubility pH 7.4 = conditions: pH 7.4, aqueous buffer
PI3K alpha = PI3K alpha (Homo sapiens, UniProt P42336); test: PI3K-alpha Fluorescence Polarization Assay; type: biochemical
Sequence of PI3K alpha (P42336 whole entry, species assumed): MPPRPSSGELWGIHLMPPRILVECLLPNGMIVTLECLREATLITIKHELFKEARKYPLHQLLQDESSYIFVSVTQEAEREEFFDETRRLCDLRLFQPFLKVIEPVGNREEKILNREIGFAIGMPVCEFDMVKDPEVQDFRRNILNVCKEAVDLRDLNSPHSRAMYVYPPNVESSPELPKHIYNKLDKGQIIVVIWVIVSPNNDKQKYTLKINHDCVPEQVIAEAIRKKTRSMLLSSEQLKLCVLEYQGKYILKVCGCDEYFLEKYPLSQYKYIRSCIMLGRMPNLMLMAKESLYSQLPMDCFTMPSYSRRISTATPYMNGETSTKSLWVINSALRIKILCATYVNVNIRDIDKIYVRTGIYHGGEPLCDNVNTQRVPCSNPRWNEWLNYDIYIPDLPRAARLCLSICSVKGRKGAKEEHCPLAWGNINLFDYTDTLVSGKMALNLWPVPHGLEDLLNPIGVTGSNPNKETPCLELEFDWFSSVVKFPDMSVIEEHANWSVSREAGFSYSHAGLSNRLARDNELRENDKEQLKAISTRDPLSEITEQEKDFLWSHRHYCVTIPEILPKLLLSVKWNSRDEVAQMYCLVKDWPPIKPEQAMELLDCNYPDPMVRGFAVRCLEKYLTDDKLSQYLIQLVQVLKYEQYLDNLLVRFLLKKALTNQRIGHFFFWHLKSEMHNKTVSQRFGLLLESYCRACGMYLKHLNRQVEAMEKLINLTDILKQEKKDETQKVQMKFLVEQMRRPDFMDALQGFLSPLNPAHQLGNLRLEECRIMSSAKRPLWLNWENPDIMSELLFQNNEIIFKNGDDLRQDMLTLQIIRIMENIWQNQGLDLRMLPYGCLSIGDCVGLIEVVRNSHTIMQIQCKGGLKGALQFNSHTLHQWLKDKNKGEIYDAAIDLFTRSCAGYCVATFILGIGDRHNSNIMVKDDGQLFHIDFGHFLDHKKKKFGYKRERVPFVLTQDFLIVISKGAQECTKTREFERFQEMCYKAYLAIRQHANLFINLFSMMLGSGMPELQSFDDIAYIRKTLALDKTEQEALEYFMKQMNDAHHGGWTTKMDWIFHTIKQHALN
Sequence of PI3K alpha (P27986 whole entry partner, species assumed): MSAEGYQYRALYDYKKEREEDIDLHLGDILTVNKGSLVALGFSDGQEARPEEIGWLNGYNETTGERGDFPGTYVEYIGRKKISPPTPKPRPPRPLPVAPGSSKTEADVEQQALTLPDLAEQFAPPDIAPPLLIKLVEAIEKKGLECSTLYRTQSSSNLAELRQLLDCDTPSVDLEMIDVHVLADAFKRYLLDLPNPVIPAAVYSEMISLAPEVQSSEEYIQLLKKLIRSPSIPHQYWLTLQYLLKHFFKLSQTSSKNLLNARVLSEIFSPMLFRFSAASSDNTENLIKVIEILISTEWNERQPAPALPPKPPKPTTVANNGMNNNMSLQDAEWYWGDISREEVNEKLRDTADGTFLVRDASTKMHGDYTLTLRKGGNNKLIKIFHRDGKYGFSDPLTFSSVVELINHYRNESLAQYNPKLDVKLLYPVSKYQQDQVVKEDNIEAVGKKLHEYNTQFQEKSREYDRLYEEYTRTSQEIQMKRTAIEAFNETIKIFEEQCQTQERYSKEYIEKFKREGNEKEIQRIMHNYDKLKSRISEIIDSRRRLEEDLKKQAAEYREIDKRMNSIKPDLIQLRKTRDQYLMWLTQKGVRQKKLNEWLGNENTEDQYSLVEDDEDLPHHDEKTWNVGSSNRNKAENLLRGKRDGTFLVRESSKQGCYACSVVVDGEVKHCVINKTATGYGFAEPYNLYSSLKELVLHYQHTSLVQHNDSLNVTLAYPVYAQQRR

[3] = Microsome Stability (15 min), nude mouse; type: in vitro ADME; conditions: microsomes
[4] = Microsome Stability (15 min), human; type: in vitro ADME; conditions: microsomes
[5] = CACO2 permeability a-b/b-a; type: in vitro ADME; conditions: human, Caco-2; for Papp A→B: a − b (first value of cell), read-out: CACO2 Pe a − b; for Papp B→A: b − a (second value of cell), read-out: CACO2 Pe b − a
mTOR = mTOR (Homo sapiens, UniProt P42345); test: mTOR Enzyme Assay (DELFIA, purified enzyme); type: biochemical; design: FLAG
[6] = Buffer Stability (37° C.)
[7] = Plasma Stability (37° C.), rat
[8] = In vivo blood/plasma and tumor levels of prodrug and metabolites after 50 mg, kg po; conditions: 50 mg
[9] = nude, mouse, Phase I (NADPH), read-out: Microsome Stability (15 min) T ½ Phase I nude mouse
[10] = Phase I (NADPH), read-out: Microsome Stability (15 min) T ½ Phase I human
[11] = value after the slash in Table VIc, read-out: Microsome Stability (15 min) T ½ human, second value of cell
[12] = Phase I (NADPH), read-out: Microsome Stability (15 min) T ½ Phase I nude mouse

Row | Compound | half-life [1] [min] | PAMPA Pe [2] | solubility (Solubility pH 7.4) [µg/mL] | half-life [4, 10] [min] | IC50 (mTOR; read-out: mTOR Mean IC50) [nM] | IC50 (PI3K alpha) [nM] | other results
1 | COc1ccc2c(c1)c(/C=C1\Oc3cc(O)ccc3C1=O)cn2CCCN(C)C [(2Z)-2-({1-[3-(dimethylamino)propyl]-5-methoxy-1H-indol-3-yl}methylene)-6-hydroxy-1-benzofuran-3(2H)-one] | 12 | 0 10e−6 cm/s | 53 (≈ 135 µM) |  |  |  | 
2 | Cn1cc(/C=C2\Oc3cc(O)cc(O)c3C2=O)c2c(-c3ccccc3)ccnc21 [(2Z)-4,6-dihydroxy-2-[(1-methyl-4-phenyl-1H-pyrrolo[2,3-b]pyridin-3-yl)methylene]-1-benzofuran-3(2H)-one] | > 30 | 0.09 10e−6 cm/s | 1 (≈ 2.6 µM) | > 30 |  |  | IC50 (PI3K alpha; read-out: PI3K alpha Mean IC50): 62.8 nM; half-life [3, 9]: 30 min; half-life ([3]; nude, mouse, value after the slash in Table VIc, read-out: Microsome Stability (15 min) T ½ nude mouse, second value of cell): 2 min; half-life [4, 11]: 6 min; Papp A→B [5]: 66.3 ×10⁻⁶ cm/s; Papp B→A [5]: 58.1 ×10⁻⁶ cm/s
3 | Cn1cc(/C=C2\Oc3cccc(O)c3C2=O)c2c(N3CC4CCC(C3)O4)ccnc21 [(2Z)-4-hydroxy-2-{[1-methyl-4-(8-oxa-3-azabicyclo[3.2.1]oct-3-yl)-1H-pyrrolo[2,3-b]pyridin-3-yl]methylene}-1-benzofuran-3(2H)-one] | 2 | 0.79 10e−6 cm/s |  | 28 |  |  | half-life [3, 9]: 13 min; half-life [4, 11]: 3 min; Papp A→B [5]: 5.5 ×10⁻⁶ cm/s; Papp B→A [5]: 8.1 ×10⁻⁶ cm/s
4 | COc1ccc2c(c1)c(/C=C1\Oc3ccc(O)cc3C1=O)c(C)n2CCN1CCN(C)CC1 [(2Z)-5-hydroxy-2-({5-methoxy-2-methyl-1-[2-(4-methylpiperazin-1-yl)ethyl]-1H-indol-3-yl}methylene)-1-benzofuran-3(2H)-one] |  |  |  |  | 1050 |  | 
5 | COc1ccc2c(c1)c(/C=C1\Oc3cc(OC(=O)C(C)(C)C)cc(OC(=O)C(C)(C)C)c3C1=O)cn2CCCN(C)C [Example 14, (2Z)-2-({1-[3-(dimethylamino)propyl]-5-methoxy-1H-indol-3-yl}methylene)-3-oxo-2,3-dihydro-1-benzofuran-4,6-diyl bis(2,2-dimethylpropanoate)] | 3 | 0 10e−6 cm/s | 1 (≈ 1.73 µM) | 21 |  |  | Buffer Stability (37° C.) % Remaining (at 16-23 hours) SGF [6]: 94%; Buffer Stability (37° C.) % Remaining (at 16-23 hours) SIF [6]: 0%; Buffer Stability (37° C.) % Remaining (at 16-23 hours) pH 1 [6]: 89%; Buffer Stability (37° C.) % Remaining (at 16-23 hours) pH 4.5 [6]: 98%; Buffer Stability (37° C.) % Remaining (at 16-23 hours) pH 6.6 [6]: 79%; Buffer Stability (37° C.) % Remaining (at 16-23 hours) pH 7.4 [6]: 20%; Buffer Stability (37° C.) % Remaining (at 16-23 hours) pH 9 [6]: 0%; half-life [3, 9]: 2 min
6 | COc1ccc2[nH]c(-c3ccccc3)c(/C=C3\Oc4cc(OC(=O)c5ccccc5)ccc4C3=O)c2c1 [Example 17, (2Z)-2-[(5-methoxy-2-phenyl-1H-indol-3-yl)methylene]-3-oxo-2,3-dihydro-1-benzofuran-6-yl benzoate] | 5 | 0 10e−6 cm/s | 4 (≈ 8.2 µM) | 4 |  |  | Plasma Stability (37° C.) % Remaining (3-3.5 hours) rat [7]: 2%; Buffer Stability (37° C.) % Remaining (at 16-23 hours) SGF [6]: 96%; Buffer Stability (37° C.) % Remaining (at 16-23 hours) SIF [6]: 0%; Buffer Stability (37° C.) % Remaining (at 16-23 hours) pH 1 [6]: 95%; Buffer Stability (37° C.) % Remaining (at 16-23 hours) pH 4.5 [6]: 93%; Buffer Stability (37° C.) % Remaining (at 16-23 hours) pH 6.6 [6]: 95%; Buffer Stability (37° C.) % Remaining (at 16-23 hours) pH 7.4 [6]: 32%; Buffer Stability (37° C.) % Remaining (at 16-23 hours) pH 9 [6]: 0%; IC50 (PI3K alpha; read-out: PI3K alpha Mean IC50): 157 nM; half-life [3, 9]: > 30 min
7 | COc1ccc2[nH]c(-c3ccccc3)c(/C=C3\Oc4cc(OC(=O)Oc5ccccc5)cc(OC(=O)Oc5ccccc5)c4C3=O)c2c1 [Example 23, (2Z)-2-[(5-methoxy-2-phenyl-1H-indol-3-yl)methylene]-3-oxo-2,3-dihydro-1-benzofuran-4,6-diyl diphenyl biscarbonate] | 8 | 0 10e−6 cm/s | 1 (≈ 1.56 µM) | 6 |  |  | Plasma Stability (37° C.) % Remaining (3-3.5 hours) rat [7]: 0%; Buffer Stability (37° C.) % Remaining (at 16-23 hours) SGF [6]: 0%; Buffer Stability (37° C.) % Remaining (at 16-23 hours) SIF [6]: 0%; Buffer Stability (37° C.) % Remaining (at 16-23 hours) pH 1 [6]: 0%; Buffer Stability (37° C.) % Remaining (at 16-23 hours) pH 4.5 [6]: 0%; Buffer Stability (37° C.) % Remaining (at 16-23 hours) pH 6.6 [6]: 0%; Buffer Stability (37° C.) % Remaining (at 16-23 hours) pH 7.4 [6]: 0%; Buffer Stability (37° C.) % Remaining (at 16-23 hours) pH 9 [6]: 0%; IC50 (PI3K alpha; read-out: PI3K alpha Mean IC50): 10 nM
8 | COc1ccc2c(c1)c(/C=C1\Oc3cc(OC(=O)N(c4ccccc4)c4ccccc4)cc(OC(=O)N(c4ccccc4)c4ccccc4)c3C1=O)c(C)n2CCN1CCN(C)CC1 [Example 29, (2Z)-2-({5-methoxy-2-methyl-1-[2-(4-methylpiperazin-1-yl)ethyl]-1H-indol-3-yl}methylene)-3-oxo-2,3-dihydro-1-benzofuran-4,6-diyl bis(diphenylcarbamate)] |  | 0 10e−6 cm/s | 5 (≈ 5.85 µM) |  |  | 1000 | 
9 | COc1ccc2[nH]c(-c3ccccc3)c(/C=C3\Oc4cc(OC(=O)N(C)C)cc(OC(=O)N(C)C)c4C3=O)c2c1 [Example 30, (2Z)-2-[(5-methoxy-2-phenyl-1H-indol-3-yl)methylene]-3-oxo-2,3-dihydro-1-benzofuran-4,6-diyl bis(dimethylcarbamate)] | 19 | 0 10e−6 cm/s |  | < 1 |  | 2220 | plasma prodrug concentration ([8]; 0.5 h): 29 ng, ml; plasma prodrug concentration ([8]; 2 h): 65 ng, ml; plasma prodrug concentration ([8]; 6 h (third value)): 20 ng, ml; half-life [3, 12]: > 30 min; Papp A→B [5]: 0.19 ×10⁻⁶ cm/s; Papp B→A [5]: 0.04 ×10⁻⁶ cm/s
10 | COc1ccc2[nH]c(-c3ccccc3)c(/C=C3\Oc4cc(OC(=O)N(C(C)C)C(C)C)cc(OC(=O)N(C(C)C)C(C)C)c4C3=O)c2c1 [Example 31, (2Z)-2-[(5-methoxy-2-phenyl-1H-indol-3-yl)methylene]-3-oxo-2,3-dihydro-1-benzofuran-4,6-diyl bis(diisopropylcarbamate)] | 9 | 0 10e−6 cm/s |  | 7 | 510 |  | IC50 (PI3K alpha; read-out: PI3K alpha Mean IC50): 270 nM; half-life [3, 12]: > 30 min
11 | CCOP(=O)(OCC)Oc1cc2c(c(OP(=O)(OCC)OCC)c1)C(=O)/C(=C/c1cn(CCCN(C)C)c3ccc(OC)cc13)O2 [Example 33, (2Z)-2-({1-[3-(dimethylamino)propyl]-5-methoxy-1H-indol-3-yl}methylene)-3-oxo-2,3-dihydro-1-benzofuran-4,6-diyl tetraethyl bis(phosphate)] | 12 | 0.25 10e−6 cm/s | 59 | 4 |  | > 10000 | half-life [3, 12]: 15 min
12 | CCOC(=O)CNC(=O)Oc1cc(OC(=O)NCC(=O)OCC)c2c(c1)O/C(=C\c1cn(CCCN(C)C)c3ccc(OC)cc13)C2=O [Example 35, diethyl 2,2′-[[(2Z)-2-({1-[3-(dimethylamino)propyl]-5-methoxy-1H-indol-3-yl}methylene)-3-oxo-2,3-dihydro-1-benzofuran-4,6-diyl]bis(oxycarbonylimino)]diacetate] |  | 0 10e−6 cm/s | 51 (≈ 76.5 µM) |  |  | 28 | 
13 | COc1ccc2c(c1)c(/C=C1\Oc3cc(OC(=O)N4CCN(Cc5ccccc5)CC4)cc(OC(=O)N4CCN(Cc5ccccc5)CC4)c3C1=O)cn2CCCN(C)C [Example 37, (2Z)-2-({1-[3-(dimethylamino)propyl]-5-methoxy-1H-indol-3-yl}methylene)-3-oxo-2,3-dihydro-1-benzofuran-4,6-diyl bis(4-benzylpiperazine-1-carboxylate)] |  | 0 10e−6 cm/s |  |  | 1650 | > 10000 | 
14 | COc1ccc2c(c1)c(/C=C1\Oc3cc(O)cc(OC(=O)N(C)C)c3C1=O)cn2CCCN(C)C [Example 40, (2Z)-2-({1-[3-(dimethylamino)propyl]-5-methoxy-1H-indol-3-yl}methylene)-6-hydroxy-3-oxo-2,3-dihydro-1-benzofuran-4-yl dimethylcarbamate] |  |  |  |  | > 20000 | 5880 | 
15 | COc1ccc2c(c1)c(/C=C1\Oc3cc(OC(=O)N(C)C)cc(O)c3C1=O)c(C)n2CCN1CCN(C)CC1 [Example 41, (2Z)-4-hydroxy-2-({5-methoxy-2-methyl-1-[2-(4-methylpiperazin-1-yl)ethyl]-1H-indol-3-yl}methylene)-3-oxo-2,3-dihydro-1-benzofuran-6-yldimethylcarbamate] |  |  |  |  |  | 1130 | IC50 (mTOR): 13000 nM
16 | COc1ccc2c(c1)c(/C=C1\Oc3cc(OC(=O)N(C)C)cc(O)c3C1=O)cn2CCCN(C)C [Example 42, (2Z)-2-({1-[3-(dimethylamino)propyl]-5-methoxy-1H-indol-3-yl}methylene)-4-hydroxy-3-oxo-2,3-dihydro-1-benzofuran-6-yl dimethylcarbamate] |  |  |  |  | > 20000 | 2800 | 
